Consider two compounds from paper PMC4126177, “Molecular docking simulation studies on potent butyrylcholinesterase inhibitors obtained from microbial transformation of dihydrotestosterone” (Chemistry Central Journal, 2013).

The target in the test is T1, Equine serum BChE (butyrylcholinesterase) (Equus caballus, UniProt P81908).
T1 construct: commercial native enzyme from horse serum (Sigma); docking used human BChE 1P0P, not the assayed protein
As to the kind of experiment: DTNB (Ellman-type) spectrophotometric assay, […] nm. The test is classed as biochemical. In general terms: Ellman's reagent forms a yellow product with free thiols.

Like-named read-outs stand apart in the source and are kept apart here.

T1 sequence (P81908 whole entry): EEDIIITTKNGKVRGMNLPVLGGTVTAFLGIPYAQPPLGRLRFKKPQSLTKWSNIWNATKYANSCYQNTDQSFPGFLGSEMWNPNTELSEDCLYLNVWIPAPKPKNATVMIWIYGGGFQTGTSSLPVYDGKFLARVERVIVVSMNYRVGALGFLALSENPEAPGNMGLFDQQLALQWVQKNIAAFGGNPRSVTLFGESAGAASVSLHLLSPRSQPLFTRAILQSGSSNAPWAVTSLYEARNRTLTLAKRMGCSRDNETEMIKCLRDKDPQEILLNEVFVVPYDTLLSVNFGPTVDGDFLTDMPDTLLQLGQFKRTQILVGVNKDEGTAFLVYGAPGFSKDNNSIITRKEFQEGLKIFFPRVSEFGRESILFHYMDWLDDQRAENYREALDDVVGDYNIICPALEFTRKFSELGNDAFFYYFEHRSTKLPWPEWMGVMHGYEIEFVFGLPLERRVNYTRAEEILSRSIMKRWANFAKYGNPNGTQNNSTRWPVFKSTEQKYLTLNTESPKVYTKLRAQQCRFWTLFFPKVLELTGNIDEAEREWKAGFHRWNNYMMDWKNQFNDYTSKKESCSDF

Compound `C[C@]12C=CC(=O)C=C1CC[C@@H]1[C@@H]2CC[C@]2(C)C(=O)CC[C@@H]12` [compound 5, Androst-1,4-dien-3,17-dione] showed an IC50 of 11.8 ± 0.5 µM. For the compound `C[C@]12CCC(=O)C=C1CC[C@@H]1[C@@H]2[C@H](O)C[C@]2(C)C(=O)CC[C@@H]12` [compound 6, 11α-Hydroxyandrost-4-en-3,17-dione], the IC50 (read-out: Mean ± SEM^ a [ μ M]) amounted to 20.5 ± 0.2 µM.
